{"source": "paper PMC7794472", "about": "“Direct entry of cell-penetrating peptide can be controlled by maneuvering the membrane curvature” (Scientific Reports, 2021)", "key": {"dermal fibroblasts": {"test_system": "dermal fibroblasts", "conditions": "cited from earlier work", "source_text": "Hoffmeister Effect of solute[12] is one of the known phenomena to control the hydration level of self-assembled amphiphiles. Chaotropic solutes (water structure breakers) such as sodium thiocyanate (NaSCN) and 1,3-butanediol (1,3-BG) make the membrane curvature positive. On the other hand, kosmotropic solutes (water structure maker ..."}, "[1]": {"conditions": "0 °C (SOPC Tc 6 °C, gel state), CLSM observation; cited from earlier work"}, "[2]": {"set-up": "method as in doi:10.1246/cl.2012.1078", "conditions": "under the tested conditions, regardless of osmotic pressure change; cited from earlier work"}, "[3]": {"test": "Leakage of internalized FITC-R8 and rhodamine from GUV", "conditions": "EPC GUV, L/P = 1000, 10 min, 37 °C, different osmotic pressures, with or without FITC-R8 in outer medium, fluorescence Ex 555/Em 575 nm, n = 5", "method": "GUVs were prepared by the freeze-melting and natural swelling method[23]. Lipids dissolved in chloroform were placed into the vials, and then the solvent was evaporated. After being dried in vacuo for 16 h in the dark, lipid films were hydrated with 0.01 mg/mL of Rho/3 M KCl solution to give 20 mM lipid concentration. […] The suspension was vortexed for 1 min. This step (from freezing to vortexing) was repeated six times. It was transferred to a dialysis membrane (UC-8-32-25; Viskase Co. Ltd., Chicago, USA) and dialyzed against 20% PBS for at least two days at room temperature and, the dialysis solution was daily replaced by a new one. In this study, 20% PBS is defined as ‘isotonic solution’ and PBS solution at concentrations less than 20% as ‘hypotonic solution’ and at higher than 20% as ‘hypertonic solution’.\nPenetration assay of CPP into GUV was conducted in the same manner previously reported[23]. […] The ratio of penetrated FITC-R8 and Rho leakage ratio was calculated using the following equations:1 P=A/U×100 2 L=IL-Rho/IL-Rho+INL-Rho×100\nIn Eq. (1), P is the penetrated ratio of FITC-R8 ratio, A is the amount of penetrated FITC-R8 into GUV calculated using the standard curve, and U is the amount of FITC-R8 used in this experiment. In Eq. (2), L is the leaked Rho ratio, and IL-Rho and INL-Rho are the fluorescence intensities of leaked and non-leaked Rho."}}}
{"molecule": "N=C(N)NCCC[C@H](NC(=O)[C@H](CCCNC(=N)N)NC(=O)[C@H](CCCNC(=N)N)NC(=O)[C@H](CCCNC(=N)N)NC(=O)[C@H](CCCNC(=N)N)NC(=O)[C@H](CCCNC(=N)N)NC(=O)[C@H](CCCNC(=N)N)NC(=O)[C@H](CCCNC(=N)N)NC(=O)CCCNC(=S)Nc1ccc2c(c1)C(=O)OC21c2ccc(O)cc2Oc2cc(O)ccc21)C(=O)O", "note": "[FITC-R8]", "values": [{"measurement": "cell viability with chaotropic solutes (NaSCN, 1,3-BG)", "setting": "dermal fibroblasts", "result": "without interfering with cell viability"}, {"measurement": "cytolysis to SOPC GUV", "setting": "[1]", "result": "no cytolysis"}]}
{"molecule": "fluorescein isothiocyanate [FITC]", "values": [{"measurement": "permeation through the membrane into the cytosol", "setting": "[2]", "result": "could not permeate through the membrane"}]}
{"molecule": "CCN(CC)c1ccc2c(-c3ccccc3C(=O)O)c3ccc(=[N+](CC)CC)cc-3oc2c1", "note": "[rhodamine, Rhodamine B]", "values": [{"measurement": "leakage of rhodamine pre-encapsulated in the GUV", "setting": "[3]", "result": "very low and consistent"}]}
